# Measurements: patent publication US8138189B2, “Substituted benzene compounds as modulators of the glucocorticoid receptor” (Hoffman-La Roche Inc., priority 2009, dated 2012)
# Target: T1, full length human recombinant glucocorticoid receptor (Homo sapiens, UniProt P04150)
# T1 construct: partially purified full length human recombinant glucocorticoid receptor; purchased Panvera/Invitrogen PV4302
# T1 sequence (P04150 1-777): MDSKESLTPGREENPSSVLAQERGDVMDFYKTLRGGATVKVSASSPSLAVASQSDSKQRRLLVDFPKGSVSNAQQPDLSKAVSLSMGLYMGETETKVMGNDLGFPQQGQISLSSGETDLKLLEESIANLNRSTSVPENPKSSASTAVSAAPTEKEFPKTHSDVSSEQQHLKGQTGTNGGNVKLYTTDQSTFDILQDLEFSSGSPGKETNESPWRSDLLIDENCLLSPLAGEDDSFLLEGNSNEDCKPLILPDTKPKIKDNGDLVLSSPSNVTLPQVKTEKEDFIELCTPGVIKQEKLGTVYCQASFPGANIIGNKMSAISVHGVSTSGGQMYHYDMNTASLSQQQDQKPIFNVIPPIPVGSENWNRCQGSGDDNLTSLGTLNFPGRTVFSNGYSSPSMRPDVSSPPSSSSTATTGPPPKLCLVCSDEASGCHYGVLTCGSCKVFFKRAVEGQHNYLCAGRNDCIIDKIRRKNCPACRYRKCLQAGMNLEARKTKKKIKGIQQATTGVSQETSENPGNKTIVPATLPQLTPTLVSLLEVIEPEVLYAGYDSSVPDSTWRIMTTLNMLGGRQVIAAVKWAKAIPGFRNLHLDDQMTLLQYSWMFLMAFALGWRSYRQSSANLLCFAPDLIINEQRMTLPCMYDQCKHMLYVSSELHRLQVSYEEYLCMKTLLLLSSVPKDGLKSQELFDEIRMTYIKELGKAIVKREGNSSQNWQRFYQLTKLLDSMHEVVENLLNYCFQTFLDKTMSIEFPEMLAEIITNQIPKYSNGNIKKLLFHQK
# Test: Glucocorticoid Receptor Binding Assay (fluorescence polarization competitor assay, Fluormone GS Far Red tracer)
# How it was run: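 Partially purified full-length recombinant human GR with a stabilizing coactivator peptide was incubated with Fluormone GS Far Red tracer and serially diluted compound for 3 h at 22 °C in the dark, pH 7.4. Fluorescence polarization was read at 610-660 nm. IC50 came from sigmoidal fitting, and Ki from Cheng-Prusoff.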
row,Ki [nM],Structure (SMILES)
1,6.4,"Cc1cc(C(O)(C(C)c2ccc(-c3cccc(CC(=O)O)c3)cc2Cl)C(F)(F)F)ccn1 (stereo not drawn) [Example 63, {3′-Chloro-4′-[3,3,3-trifluoro-2-hydroxy-1-methyl-2-(2-methyl-pyridin-4-yl)-propyl]-biphenyl-3-yl}-acetic acid]"
2,66.3,"Cc1cc(C(O)(C(C)c2ccc(-c3ccc(CC(=O)O)cc3)cc2Cl)C(F)(F)F)ccn1 (stereo not drawn) [Example 64, {3′-Chloro-4′-[3,3,3-trifluoro-2-hydroxy-1-methyl-2-(2-methyl-pyridin-4-yl)-propyl]-biphenyl-4-yl}-acetic acid]"
3,214,"Cc1cc(C(O)(C(C)c2ccc(-c3ccc(C(=O)O)nc3)cc2Cl)C(F)(F)F)ccn1 (stereo not drawn) [Example 65, 5-{3-Chloro-4-[3,3,3-trifluoro-2-hydroxy-1-methyl-2-(2-methyl-pyridin-4-yl)-propyl]-phenyl}-pyridine-2-carboxylic acid]"
4,4.4,"Cc1cc(C(O)(C(C)c2ccc(/C=C/c3ccc(C(=O)O)cc3)cc2Cl)C(F)(F)F)ccn1 (stereo not drawn) [Example 66, 4-((E)-2-{3-Chloro-4-[3,3,3-trifluoro-2-hydroxy-1-methyl-2-(2-methyl-pyridin-4-yl)-propyl]-phenyl}-vinyl)-benzoic acid]"
5,24.4,"Cc1cc(C(O)(C(C)c2ccc(CCc3ccc(C(=O)O)cc3)cc2Cl)C(F)(F)F)ccn1 (stereo not drawn) [Example 67, 4-(2-{3-Chloro-4-[3,3,3-trifluoro-2-hydroxy-1-methyl-2-(2-methyl-pyridin-4-yl)-propyl]-phenyl}-ethyl)-benzoic acid]"
6,116,"CC(c1ccc(NC(=O)c2ccc(C(=O)O)cc2)cc1Cl)C(O)(c1ccnc(Cl)c1)C(F)(F)F (stereo not drawn) [Example 69, N-{3-Chloro-4-[2-(2-chloro-pyridin-4-yl)-3,3,3-trifluoro-2-hydroxy-1-methyl-propyl]-phenyl}-terephthalamic acid]"
7,315,"CC(c1ccc(NC(=O)c2cccc(C(=O)O)c2)cc1Cl)C(O)(c1ccnc(Cl)c1)C(F)(F)F (stereo not drawn) [Example 70, N-{3-Chloro-4-[2-(2-chloro-pyridin-4-yl)-3,3,3-trifluoro-2-hydroxy-1-methyl-propyl]-phenyl}-isophthalamic acid]"
8,93.5,"CC(c1ccc(NC(=O)c2cccc(CC(=O)O)c2)cc1Cl)C(O)(c1ccnc(Cl)c1)C(F)(F)F (stereo not drawn) [Example 73, (3-{3-Chloro-4-[2-(2-chloro-pyridin-4-yl)-3,3,3-trifluoro-2-hydroxy-1-methyl-propyl]-phenylcarbamoyl}-phenyl)-acetic acid]"
9,178,"CC(c1ccc(NS(=O)(=O)c2ccc(C(=O)O)cc2)cc1Cl)C(O)(c1ccnc(Cl)c1)C(F)(F)F (stereo not drawn) [Example 76, 4-{3-Chloro-4-[2-(2-chloro-pyridin-4-yl)-3,3,3-trifluoro-2-hydroxy-1-methyl-propyl]-phenylsulfamoyl}-benzoic acid]"
10,13.9,"CC(c1ccc(Nc2ccc(C(=O)O)cc2)cc1Cl)C(O)(c1ccnc(Cl)c1)C(F)(F)F (stereo not drawn) [Example 77, 4-{3-Chloro-4-[2-(2-chloro-pyridin-4-yl)-3,3,3-trifluoro-2-hydroxy-1-methyl-propyl]-phenylamino}-benzoic acid]"
11,76.7,"CC(c1ccc(N(c2ccc(C(=O)O)cn2)c2ccc(C(=O)O)cn2)cc1Cl)C(O)(c1ccnc(Cl)c1)C(F)(F)F (stereo not drawn) [Example 78, 6,6′-(3-Chloro-4-(3-(2-chloropyridin-4-yl)-4,4,4-trifluoro-3-hydroxybutan-2-yl)phenylazanediyl)dinicotinic acid]"
12,13.4,"CC(c1ccc(Oc2ccc(CC(=O)O)cc2)cc1Cl)C(O)(c1ccnc(Cl)c1)C(F)(F)F (stereo not drawn) [Example 79, (4-{3-Chloro-4-[2-(2-chloro-pyridin-4-yl)-3,3,3-trifluoro-2-hydroxy-1-methyl-propyl]-phenoxy}-phenyl)-acetic acid]"
13,2.1,"CC(c1ccc(Oc2ccc(C(=O)O)cc2)cc1Cl)C(O)(c1ccnc(Cl)c1)C(F)(F)F (stereo not drawn) [Example 80, 4-{3-Chloro-4-[2-(2-chloro-pyridin-4-yl)-3,3,3-trifluoro-2-hydroxy-1-methyl-propyl]-phenoxy}-benzoic acid]"
14,26.5,"CC(c1ccc(Oc2ccc(C(=O)O)nc2)cc1Cl)C(O)(c1ccnc(Cl)c1)C(F)(F)F (stereo not drawn) [Example 81, 5-{3-Chloro-4-[2-(2-chloro-pyridin-4-yl)-3,3,3-trifluoro-2-hydroxy-1-methyl-propyl]-phenoxy}-pyridine-2-carboxylic acid]"
15,5.1,"CC(c1ccc(Oc2ccc(C(=O)O)c(Cl)c2)cc1Cl)C(O)(c1ccnc(Cl)c1)C(F)(F)F (stereo not drawn) [Example 82, 2-Chloro-4-{3-chloro-4-[2-(2-chloro-pyridin-4-yl)-3,3,3-trifluoro-2-hydroxy-1-methyl-propyl]-phenoxy}-benzoic acid]"
16,5.6,"CC(c1ccc(Oc2ccc(C(=O)O)c(F)c2)cc1Cl)C(O)(c1ccnc(Cl)c1)C(F)(F)F (stereo not drawn) [Example 83, 4-{3-Chloro-4-[2-(2-chloro-pyridin-4-yl)-3,3,3-trifluoro-2-hydroxy-1-methyl-propyl]-phenoxy}-2-fluoro-benzoic acid]"
17,35.5,"CC(c1ccc(Oc2ccccc2C(=O)O)cc1Cl)C(O)(c1ccnc(Cl)c1)C(F)(F)F (stereo not drawn) [Example 84, 2-{3-Chloro-4-[2-(2-chloro-pyridin-4-yl)-3,3,3-trifluoro-2-hydroxy-1-methyl-propyl]-phenoxy}-benzoic acid]"
18,1.4,"CC(c1ccc(Oc2ccc(OCC(=O)O)cc2)cc1Cl)C(O)(c1ccnc(Cl)c1)C(F)(F)F (stereo not drawn) [Example 85, (4-{3-Chloro-4-[2-(2-chloro-pyridin-4-yl)-3,3,3-trifluoro-2-hydroxy-1-methyl-propyl]-phenoxy}-phenoxy)-acetic acid]"
19,16.4,"COc1cc(Oc2ccc(C(C)C(O)(c3ccnc(Cl)c3)C(F)(F)F)c(Cl)c2)ccc1C(=O)O (stereo not drawn) [Example 86, 4-{3-Chloro-4-[2-(2-chloro-pyridin-4-yl)-3,3,3-trifluoro-2-hydroxy-1-methyl-propyl]-phenoxy}-2-methoxy-benzoic acid]"
20,15.1,"CC(c1ccc(Oc2cccc(CC(=O)O)c2)cc1Cl)C(O)(c1ccnc(Cl)c1)C(F)(F)F (stereo not drawn) [Example 87, (3-{3-Chloro-4-[2-(2-chloro-pyridin-4-yl)-3,3,3-trifluoro-2-hydroxy-1-methyl-propyl]-phenoxy}-phenyl)-acetic acid]"
21,1.2,"CC(c1ccc(Oc2ccc(C(=O)O)cc2F)cc1Cl)C(O)(c1ccnc(Cl)c1)C(F)(F)F (stereo not drawn) [Example 88, 4-{3-Chloro-4-[2-(2-chloro-pyridin-4-yl)-3,3,3-trifluoro-2-hydroxy-1-methyl-propyl]-phenoxy}-3-fluoro-benzoic acid]"
22,3.4,"CC(c1ccc(Oc2ccc(C(=O)O)cc2Cl)cc1Cl)C(O)(c1ccnc(Cl)c1)C(F)(F)F (stereo not drawn) [Example 89, 3-Chloro-4-{3-chloro-4-[2-(2-chloro-pyridin-4-yl)-3,3,3-trifluoro-2-hydroxy-1-methyl-propyl]-phenoxy}-benzoic acid]"
23,4.5,"CC(c1ccc(Oc2ccc(Cl)c(C(=O)O)c2)cc1Cl)C(O)(c1ccnc(Cl)c1)C(F)(F)F (stereo not drawn) [Example 90, 2-Chloro-5-{3-chloro-4-[2-(2-chloro-pyridin-4-yl)-3,3,3-trifluoro-2-hydroxy-1-methyl-propyl]-phenoxy}-benzoic acid]"
24,7.1,"CC(c1ccc(Oc2ccc(F)c(C(=O)O)c2)cc1Cl)C(O)(c1ccnc(Cl)c1)C(F)(F)F (stereo not drawn) [Example 91, 5-{3-Chloro-4-[2-(2-chloro-pyridin-4-yl)-3,3,3-trifluoro-2-hydroxy-1-methyl-propyl]-phenoxy}-2-fluoro-benzoic acid]"
